Legend:
[1] = tested on: a variety of test species; experiment: Post-emergence herbicidal activity (glasshouse, sprayed after 8 days cultivation, evaluated after 13 days); type: in vivo; set-up: key: 5=total damage to plant; 0=no damage to plant; conditions: rate 1000 g/Ha, scale 0-5
Protocol: (§1) Seeds of a variety of test species were sown in standard soil in pots. After 8 days cultivation (post-emergence) under controlled conditions in a glasshouse (at 24/16° C., day/night; 14 hours light; 65% humidity), the plants were sprayed with an aqueous spray solution derived from the formulation of the technical active ingredient in acetone/water (50:50) solution containing 0.5% Tween 20 (polyoxyethelyene sorbitan monolaurate, CAS RN 9005-64-5). The test plants were then grown in a glasshouse under controlled conditions (at 24/16° C., day/night; 14 hours light; 65% humidity) and watered twice daily. After 13 days, the test was evaluated (5=total damage to plant; 0=no damage to plant).

[2] = tested on: a variety of test species; experiment: Pre-emergence herbicidal activity (glasshouse, sprayed one day after sowing, evaluated after 13 days); type: in vivo; set-up: key: 5=total damage to plant; 0=no damage to plant; conditions: application pre-emergence, rate 1000 g/Ha, scale 0-5
Protocol: as §1, with “After” for “After 8 days”, “for one day (pre-emergence)” for “(post-emergence)”

| Compound | ABUTH (Abutilon theophrasti) damage score, application post-emergence [1] | ALOMY (Alopecurus myosuroides) damage score, application post-emergence [1] | AMARE (Amaranthus retroflexus) damage score, application post-emergence [1] | ECHCG (Echinochloa crus-galli) damage score, application post-emergence [1] | SETFA (Setaria faberi) damage score, application post-emergence [1] | ZEAMX (Zea mays) damage score, application post-emergence [1] | Pre-emergence herbicidal damage score, ABUTH [2] | Pre-emergence herbicidal damage score, ALOMY [2] | Pre-emergence herbicidal damage score, AMARE [2] | Pre-emergence herbicidal damage score, ECHCG [2] | Pre-emergence herbicidal damage score, SETFA [2] | Pre-emergence herbicidal damage score, ZEAMX [2] |
| --- | --- | --- | --- | --- | --- | --- | --- | --- | --- | --- | --- | --- |
| CCOc1cc(N2C(=O)C(Cl)=C(C)C2O)no1 (stereo not shown) [A32] | 5 | 2 | 2 | 5 | 2 | 2 | 4 | 2 | 1 | 3 | 1 | 1 |
| CCC(C)(CC#N)c1cc(N2C(=O)C(Cl)=C(C)C2O)no1 (stereo not shown) [A59] | 5 | 5 | 5 | 5 | 5 | 5 | 5 | 5 | 5 | 5 | 5 | 5 |
| CCCC1=C(Cl)C(=O)N(c2noc(C(C)C)c2C#N)C1O (stereo not shown) [A69] | 4 | 2 | 5 | 5 | 5 | 1 | 0 | 0 | 2 | 1 | 1 | 0 |
| CCCC1=C(Cl)C(=O)N(c2noc(C)c2C#N)C1O (stereo not shown) [A70] | 2 | 3 | 5 | 5 | 5 | 1 | 0 | 1 | 5 | 4 | 3 | 1 |
| CCCC1=C(Br)C(=O)N(c2noc(C(C)(C)C#N)c2C#N)C1OC(=O)CC (stereo not shown) [A74] | 5 | 5 | 5 | 5 | 5 | 5 | 5 | 4 | 5 | 5 | 5 | 4 |
| CC(=O)OC1C(C)=C(Cl)C(=O)N1c1cc(C(C)(C)C)on1 (stereo not shown) [A75] | 5 | 5 | 5 | 5 | 5 | 5 | 5 | 4 | 5 | 4 | 4 | 3 |
| CC1=C(Cl)C(=O)N(c2cc(C(C)(C)C)on2)C1OC(=O)C(C)C (stereo not shown) [A76] | 5 | 5 | 5 | 5 | 5 | 4 | 5 | 4 | 5 | 4 | 4 | 3 |
| CC1=C(Cl)C(=O)N(c2cc(C(C)(C)C)on2)C1OC(=O)C(C)(C)C (stereo not shown) [A77] | 1 | 2 | 3 | 3 | 2 | 1 | 1 | 1 | 4 | 1 | 2 | 1 |
| CCSC(=O)OC1C(C)=C(Cl)C(=O)N1c1cc(C(C)(C)C)on1 (stereo not shown) [A78] | 5 | 5 | 5 | 5 | 5 | 4 | 5 | 2 | 5 | 5 | 5 | 2 |
| COC(=O)OC1C(C)=C(Cl)C(=O)N1c1cc(C(C)(C)C)on1 (stereo not shown) [A81] | 5 | 5 | 5 | 5 | 5 | 4 | 5 | 4 | 5 | 5 | 5 | 3 |
| CC1=C(Cl)C(=O)N(c2cc(C(C)(C)C)on2)C1OC(=O)SCC(C)C (stereo not shown) [A82] | – | – | 2 | 2 | 2 | 1 | 1 | 0 | 3 | 1 | 1 | 0 |
| C=COC(=O)OC1C(C)=C(Cl)C(=O)N1c1cc(C(C)(C)C)on1 (stereo not shown) [A83] | 5 | 5 | 5 | 5 | 5 | 4 | 5 | 4 | 5 | 5 | 5 | 4 |
| CC#CCOC(=O)OC1C(C)=C(Cl)C(=O)N1c1cc(C(C)(C)C)on1 (stereo not shown) [A85] | 5 | 5 | 5 | 5 | 5 | 4 | 5 | 4 | 5 | 5 | 5 | 3 |
